The values that follow are results of earlier work, collected in US7687082B2, “Complementary compositions to reduce blood glucose levels and treat diabetes” (Astrum Therapeutics Pty. Ltd., priority 2005, dated 2010).

Where two headings read alike, the source gives them in different places.

Data set [1] addresses T1, adenosine triphosphate (ATP) citrate lyase (Homo sapiens, UniProt P53396).
T1 sequence (P53396 1-1101): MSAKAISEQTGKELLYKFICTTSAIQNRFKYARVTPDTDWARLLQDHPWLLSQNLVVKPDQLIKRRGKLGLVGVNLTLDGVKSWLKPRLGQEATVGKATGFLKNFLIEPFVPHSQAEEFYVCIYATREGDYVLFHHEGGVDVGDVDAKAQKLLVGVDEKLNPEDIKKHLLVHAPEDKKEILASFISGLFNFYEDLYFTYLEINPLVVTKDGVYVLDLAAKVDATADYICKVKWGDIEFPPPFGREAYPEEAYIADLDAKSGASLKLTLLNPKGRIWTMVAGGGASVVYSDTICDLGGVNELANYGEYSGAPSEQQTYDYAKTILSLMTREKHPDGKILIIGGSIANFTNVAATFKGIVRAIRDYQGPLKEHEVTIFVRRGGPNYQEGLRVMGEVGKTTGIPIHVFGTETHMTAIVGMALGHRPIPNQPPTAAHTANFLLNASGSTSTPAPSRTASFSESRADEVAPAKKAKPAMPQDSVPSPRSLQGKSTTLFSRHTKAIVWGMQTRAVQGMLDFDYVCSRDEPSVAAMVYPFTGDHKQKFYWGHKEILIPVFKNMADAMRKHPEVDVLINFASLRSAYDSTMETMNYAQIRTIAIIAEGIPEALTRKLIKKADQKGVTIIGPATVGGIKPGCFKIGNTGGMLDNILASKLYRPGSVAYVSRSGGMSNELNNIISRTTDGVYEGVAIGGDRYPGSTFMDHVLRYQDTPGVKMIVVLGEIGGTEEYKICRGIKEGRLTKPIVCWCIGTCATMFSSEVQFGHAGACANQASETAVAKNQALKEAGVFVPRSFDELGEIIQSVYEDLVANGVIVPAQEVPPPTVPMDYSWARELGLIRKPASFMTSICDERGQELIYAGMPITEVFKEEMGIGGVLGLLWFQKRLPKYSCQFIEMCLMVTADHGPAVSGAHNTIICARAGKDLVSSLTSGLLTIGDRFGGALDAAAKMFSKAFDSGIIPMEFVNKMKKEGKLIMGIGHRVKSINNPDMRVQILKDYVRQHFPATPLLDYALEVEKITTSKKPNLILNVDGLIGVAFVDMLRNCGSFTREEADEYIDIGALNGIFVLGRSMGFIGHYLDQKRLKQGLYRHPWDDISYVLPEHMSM

The test system of data set [2] is humans. To be noted: compared to baseline.
Data set [3] concerns T2DM subjects. To be noted: 600 mg twice daily, 4 weeks.
Data set [4] relates to diabetes mellitus patients.
The subject of data set [5] is T2DM patients. As to conditions: 12 weeks, compared to placebo control.
The subject of data set [6] is T2DM patients. To be noted: 200 μg twice daily, three weeks.
Data set [7] relates to rats. As to conditions: rat, in vivo.
The subject of data set [8] is humans. To be noted: in vivo.
Data set [9] concerns timed-pregnant Sprague-Dawley rats. To be noted: rat, in vivo.
For data set [10] the following is noted: with food.

Turning to `O=C(O)CC(O)(C(=O)O)C(O)C(=O)O` (single isomer, unassigned; (-)) [(−)-HCA, (−)-hydroxycitric acid], the “inhibition of ATP citrate lyase” value in [1] is “potent inhibitor”. In addition, in data set [2] (2.8 g), the “decreased body mass index (BMI)” value was −5 to −6%, the decreased body weight is recorded as −5 to −6%, the “decreased low density lipoprotein (LDL)” value is given as −13.2% and the “decreased total cholesterol (TC)” value is reported as −7.2%. Besides, the “increased high density lipoprotein (HDL)” value in [2] (2.8 g) was “+7.3%”. In data set [2] (end of study), the “urine level of acetaldehyde” value is reported as “+83.1%”, the “urine level of acetone” value was “+35.6%”, the “urine level of formaldehyde” value was “+106.4%” and the “urine level of malondialdehyde” value is on record as “+88.4%”.
For the molecule `O=C(O)CCCCC1CCSS1` (stereo not drawn) [α-LA, α-lipoic acid], the entries for the “increases in glucose disposal” value in data set [3] (lean T2DM subjects compared to lean controls) and in [3] (obese T2DM subjects compared to obese controls) were 50% and 42%, respectively. Further, in data set [4], the “decrease of levels of peroxides” value is recorded as 34%.
With chromium picolinate [CrPic], the insulin level entry in data set [5] is listed as “significant decrease”. Also, in data set [5] (p<0.001), the “improvement in fasting glucose” value is 0.44 mM and the “improvement in post-prandial serum glucose” value is 1.97 mM.
As for `[Cr]` [chromium], in [6] (compared to baseline), the reduction in triglycerides was −10.5%. For the same molecule, the reduction in glucose in data set [6] (compared to baseline, p<0.001) is −21%. For the same molecule, in data set [6] (compared to baseline, p<0.02), the reduction in cholesterol is on record as −9.4%. Besides, the “glycated hemoglobin (HbA1C)” value in [6] (from 8.2% at baseline, p<0.01) was 7.6%.
`CCN(CC)CCO` [diethylethanolamine]: in data set [7], the “findings in respiratory epithelium of the anterior nasal turbinate” value is “inflammatory cell infiltration, focal hyperplasia, and squamous metaplasia”. The individuals developing asthma in data set [8] is listed as 0.6%. Moreover, in data set [9], the “reduction of body weight” value is recorded as 9.5% and the “reduction of weight gain” value is 48%.
For the molecule konjac mannan, in data set [10], the “decreased LDL” value was −23% and the “decreased TC” value is on record as −12.7%. Besides, the “generalized loss of weight” value in data set [10] (average) was 2.75 kg. Besides, the “reduced fasting and postprandial levels of glucose” value in data set [10] (on average) is −22%.
